Literature values, collected in patent US8410096B2, “Antitumor agent, kit and method of treating cancer” (Shizuoka Prefecture, priority 2008, dated 2013).

System: 5-FU decomposition
Details: compared with uracil

Question: For Oc1cc(O)c(Cl)cn1 [gimeracil, 2,4-dihydroxy-5-chloropyridine], which “5-FU decomposition inhibitory action relative to uracil” value is on record?
Answer: Its value is “about 200 times”.
